Data reported in patent publication US9938262B2, “Benzamides” (Merck Patent GmbH, priority 2011, dated 2018).

Target: T1, FSHR (Homo sapiens, UniProt P23945)
T1 construct: expressed in transfected cells; host or cells: CHO (Cho-FSHR-LUC-1-1-43)
Experiment: EC50 of cyclic AMP production in CHO FSHR cells + EC20 FSH (Assay A)
Type: cell-based
Conditions: Table 2; for EC50: CHO FSHR cells + EC20 FSH, read-out: Assay A EC50 of cyclic AMP production
Procedure, shortened: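 cAMP HTRF ratio (665/620 nm) read after 1 h, 37 °C exposure of CHO-FSHR cells to compound in presence of EC20 FSH ([…]) and IBMX 200 μM. Responses given relative to FSH standard maximum; EC50 derived.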

T1 sequence (P23945 18-695): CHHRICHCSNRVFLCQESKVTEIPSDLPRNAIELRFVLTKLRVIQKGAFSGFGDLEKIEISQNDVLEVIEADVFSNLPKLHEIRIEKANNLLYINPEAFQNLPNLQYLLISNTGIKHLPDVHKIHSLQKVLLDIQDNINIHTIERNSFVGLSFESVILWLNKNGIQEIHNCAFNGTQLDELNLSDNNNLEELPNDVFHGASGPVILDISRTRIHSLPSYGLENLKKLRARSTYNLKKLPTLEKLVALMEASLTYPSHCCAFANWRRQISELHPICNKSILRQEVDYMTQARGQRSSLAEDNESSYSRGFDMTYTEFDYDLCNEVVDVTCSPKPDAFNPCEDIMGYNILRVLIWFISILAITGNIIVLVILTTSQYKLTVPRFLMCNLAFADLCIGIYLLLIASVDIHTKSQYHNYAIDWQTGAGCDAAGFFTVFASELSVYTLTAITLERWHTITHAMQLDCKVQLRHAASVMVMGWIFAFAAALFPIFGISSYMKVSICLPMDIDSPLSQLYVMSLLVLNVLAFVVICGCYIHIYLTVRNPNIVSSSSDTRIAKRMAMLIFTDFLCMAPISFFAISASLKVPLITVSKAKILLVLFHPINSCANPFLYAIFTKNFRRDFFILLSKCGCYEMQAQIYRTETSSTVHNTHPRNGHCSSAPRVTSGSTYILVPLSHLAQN
T1 sequence (P01215 25-116 partner): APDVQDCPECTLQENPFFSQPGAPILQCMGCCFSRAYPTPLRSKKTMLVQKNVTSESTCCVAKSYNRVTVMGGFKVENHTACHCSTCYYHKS
T1 sequence (P01225 19-129 partner): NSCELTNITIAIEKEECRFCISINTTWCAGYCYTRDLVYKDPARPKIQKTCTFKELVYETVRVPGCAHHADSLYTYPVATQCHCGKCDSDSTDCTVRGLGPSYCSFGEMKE

| EC50 [nM] | activation at 5 µM (1 h, 5 μM, effect relative to maximum response of the FSH standard) [%] | Structure (SMILES) |
| --- | --- | --- |
| 100 to 1000 | – | Cc1cccnc1N1CCN(c2ccc(C(=O)NCCc3c[nH]cn3)cc2NC(=O)c2coc(C3CC3)n2)CC1 [Compound 444] |
| < 100 | – | CCC(=O)NCCCNC(=O)c1ccc(N2CCN(c3ccccc3C)CC2)c(NC(=O)c2coc(C3CC3)n2)c1 [Compound 445] |
| 100 to 1000 | – | Cc1ccccc1N1CCN(c2ccc(C(=O)NCCCNC(=O)C(C)C)cc2NC(=O)c2coc(C3CC3)n2)CC1 [Compound 446] |
| 100 to 1000 | – | Cc1ccccc1N1CCN(c2ccc(C(=O)NCCCNC(=O)C3CC3)cc2NC(=O)c2coc(C3CC3)n2)CC1 [Compound 447] |
| 100 to 1000 | – | Cc1ccccc1N1CCN(c2ccc(C(=O)NCCCNC(=O)C3CCC3)cc2NC(=O)c2coc(C3CC3)n2)CC1 [Compound 448] |
| 100 to 1000 | – | Cc1ccccc1N1CCN(c2ccc(C(=O)NCCCN3CCCC3=O)cc2NC(=O)c2ccc(C3CC3)o2)CC1 [Compound 449] |
| 100 to 1000 | – | Cc1ccccc1N1CCN(c2ccc(C(=O)NCCCN3CCCC3=O)cc2NC(=O)C(F)(F)F)CC1 [Compound 451] |
| 1000 to 10000 | – | Cc1cnccc1N1CCN(c2ccc(C(=O)NCCCN3CCCC3=O)cc2NC(=O)c2coc(C3CC3)n2)CC1 [Compound 452] |
| 100 to 1000 | – | Cc1ccccc1N1CCN(c2ccc(C(=O)NCCC#N)cc2NC(=O)c2coc(C3CC3)n2)CC1 [Compound 453] |
| 100 to 1000 | – | Cc1ccccc1N1CCN(c2ccc(C(=O)NCc3cccc(CN4CCCC4)c3)cc2NC(=O)c2ccco2)CC1 [Compound 454] |
| 100 to 1000 | – | Cc1ccccc1N1CCN(c2ccc(C(=O)NCc3ccc(CN(C)C)cc3)cc2NC(=O)c2ccco2)CC1 [Compound 455] |
| 100 to 1000 | – | Cc1ccccc1N1CCN(c2ccc(C(=O)NCc3ccccc3CN(C)C)cc2NC(=O)c2ccco2)CC1 [Compound 456] |
| 1000 to 10000 | – | Cc1cnccc1N1CCN(c2ccc(C(=O)NCCc3cnc[nH]3)cc2NC(=O)c2coc(C3CC3)n2)CC1 [Compound 457] |
| 100 to 1000 | – | Cc1cncnc1N1CCN(c2ccc(C(=O)NCCCN3CCOC3=O)cc2NC(=O)c2coc(C3CC3)n2)CC1 [Compound 460] |
| 100 to 1000 | – | Cc1ccccc1N1CCN(c2ccc(C(=O)NCCCN3CCC(O)C3)cc2NC(=O)c2coc(C3CC3)n2)CC1 (stereo not shown) [Compound 461] |
| 1000 to 10000 | – | Cc1cncnc1N1CCN(c2ccc(C(=O)NCCc3cn(C)cn3)cc2NC(=O)c2coc(C3CC3)n2)CC1 [Compound 462] |
| 100 to 1000 | – | Cc1ccc(C(=O)Nc2cc(C(=O)NCCCN3CCCC3=O)ccc2N2CCN(c3ncccc3C)CC2)o1 [Compound 463] |
| 1000 to 10000 | – | Cc1ccc(C(=O)Nc2cc(C(=O)NCCc3cn(C)cn3)ccc2N2CCN(c3ncccc3C)CC2)o1 [Compound 464] |
| 100 to 1000 | – | Cc1ccccc1N1CCN(c2ccc(C(=O)NCc3cccc(CN(C)C)n3)cc2NC(=O)c2coc(C3CC3)n2)CC1 [Compound 465] |
| 1000 to 10000 | – | Cc1ccccc1N1CCN(c2ccc(C(=O)NCCCN3CCCC3=O)cc2NC(=O)c2nnc(C3CC3)o2)CC1 [Compound 466] |
| < 100 | – | Cc1ccccc1N1CCN(c2ccc(C(=O)NCC(O)CN3CCCC3=O)cc2NC(=O)c2ccco2)CC1 (stereo not shown) [Compound 467] |
| < 100 | – | Cc1ccccc1N1CCN(c2ccc(C(=O)NCCCN3CCNC3=O)cc2NC(=O)c2ccco2)CC1 [Compound 468] |
| 100 to 1000 | – | Cc1ccccc1N1CCN(c2ccc(C(=O)NCCCc3cccnc3)cc2NC(=O)c2ccco2)CC1 [Compound 469] |

| EC50 [nM] | activation at 5 µM (1 h, 5 μM, effect relative to maximum response of the FSH standard) [%] | Structure (SMILES) |
| --- | --- | --- |
| 100 to 1000 | – | Cc1ccccc1N1CCN(c2ccc(C(=O)NCCCN3CCCCC3=O)cc2NC(=O)c2ccco2)CC1 [Compound 470] |
| 100 to 1000 | – | Cc1ccccc1N1CCN(c2ccc(C(=O)NCc3cccc(CN4CCOCC4)c3)cc2NC(=O)c2ccco2)CC1 [Compound 471] |
| 100 to 1000 | – | Cc1ccccc1N1CCN(c2ccc(C(=O)NCCCCN3CCOCC3)cc2NC(=O)c2coc(C3CC3)n2)CC1 [Compound 472] |
| 100 to 1000 | – | CCN(CC)Cc1cccc(CNC(=O)c2ccc(N3CCN(c4ccccc4C)CC3)c(NC(=O)c3ccco3)c2)c1 [Compound 473] |
| < 100 | – | Cc1ccccc1N1CCN(c2ccc(C(=O)NCc3cccc(CN(C)C)n3)cc2NC(=O)c2ccco2)CC1 [Compound 474] |
| > 10000 | – | Cc1ccc(C(=O)Nc2cc(C(=O)NCCCN3CCCC3=O)ccc2N2CCN(c3ccncc3C)CC2)o1 [Compound 475] |
| < 100 | – | Cc1ccccc1N1CCN(c2ccc(C(=O)NCCCN3C(=O)[C@H]4C[C@@H]3C(O)C4O)cc2NC(=O)c2ccco2)CC1 (stereo partly shown) [Compound 477] |
| < 100 | – | CCN(C)Cc1cccc(CNC(=O)c2ccc(N3CCN(c4ccccc4C)CC3)c(NC(=O)c3ccco3)c2)c1 [Compound 478] |
| 100 to 1000 | – | Cc1ccccc1N1CCN(c2ccc(C(=O)N[C@@H]3CCCC[C@@H](O)[C@H]3O)cc2NC(=O)c2coc(C3CC3)n2)CC1 [Compound 479] |
| < 100 | – | Cc1ccccc1N1CCN(c2ccc(C(=O)N[C@@H]3CCC[C@@H](O)[C@H]3O)cc2NC(=O)c2coc(C3CC3)n2)CC1 [Compound 480] |
| 100 to 1000 | – | Cc1ccccc1N1CCN(c2ccc(C(=O)Nc3cccc(N4CCCC4=O)c3)cc2NC(=O)c2coc(C3CC3)n2)CC1 [Compound 481] |
| 1000 to 10000 | – | Cc1ccccc1N1CCN(c2ccc(C(=O)Nc3cccc(N4CCCC4=O)c3)cc2NC(=O)c2ccco2)CC1 [Compound 482] |
| 1000 to 10000 | – | Cn1ccnc1N1CCN(c2ccc(C(=O)NCCCN3CCCC3=O)cc2NC(=O)c2coc(C3CC3)n2)CC1 [Compound 483] |
| 100 to 1000 | – | COCc1cccc(CNC(=O)c2ccc(N3CCN(c4ccccc4C)CC3)c(NC(=O)c3ccco3)c2)c1 [Compound 484] |
| 100 to 1000 | – | Cc1ccccc1N1CCN(c2ccc(C(=O)NCc3cccc(C(=O)N(C)C)c3)cc2NC(=O)c2ccco2)CC1 [Compound 485] |
| 1000 to 10000 | – | Cc1ccccc1N1CCN(c2ccc(C(=O)NC(C)(C)c3cccc(CN(C)C)c3)cc2NC(=O)c2coc(C3CC3)n2)CC1 [Compound 486] |
| 1000 to 10000 | – | Cc1ccccc1N1CCN(c2ccc(C(=O)NC(C)(C)c3cccc(CN(C)C)c3)cc2NC(=O)c2ccco2)CC1 [Compound 487] |
| 1000 to 10000 | – | Cc1ccccc1N1CCN(c2ccc(C(=O)NCCc3ccc(CNC(=O)OC(C)(C)C)cc3)cc2NC(=O)c2coc(C3CC3)n2)CC1 [Compound 489] |
| < 100 | – | CCCNC(=O)NCCCNC(=O)c1ccc(N2CCN(c3ccccc3C)CC2)c(NC(=O)c2ccco2)c1 [Compound 490] |
| 100 to 1000 | – | CCCCNC(=O)NCCCNC(=O)c1ccc(N2CCN(c3ccccc3C)CC2)c(NC(=O)c2ccco2)c1 [Compound 491] |
| 100 to 1000 | – | CCNC(=O)NCCCNC(=O)c1ccc(N2CCN(c3ccccc3C)CC2)c(NC(=O)c2ccco2)c1 [Compound 492] |
| 100 to 1000 | – | Cc1ccccc1N1CCN(c2ccc(C(=O)NCCCNC(=O)NC(C)(C)C)cc2NC(=O)c2ccco2)CC1 [Compound 493] |
| 100 to 1000 | – | Cc1ccccc1N1CCN(c2ccc(C(=O)NCCCNC(=O)NC3CCCC3)cc2NC(=O)c2ccco2)CC1 [Compound 494] |

| EC50 [nM] | activation at 5 µM (1 h, 5 μM, effect relative to maximum response of the FSH standard) [%] | Structure (SMILES) |
| --- | --- | --- |
| 100 to 1000 | – | Cc1ccccc1N1CCN(c2ccc(C(=O)NCCCNC(=O)NC(C)C)cc2NC(=O)c2ccco2)CC1 [Compound 495] |
| 100 to 1000 | – | Cc1ccccc1N1CCN(c2ccc(C(=O)NCCCNC(=O)NC3CCCCC3)cc2NC(=O)c2ccco2)CC1 [Compound 496] |
| 1000 to 10000 | – | Cc1ccccc1N1CCN(c2ccc(C(=O)NCCCNC(=O)NCC3CCCCC3)cc2NC(=O)c2ccco2)CC1 [Compound 497] |
| 100 to 1000 | – | Cc1ccccc1N1CCN(c2ccc(C(=O)NCCc3ccc(CN)cc3)cc2NC(=O)c2coc(C3CC3)n2)CC1 [Compound 499] |
| 100 to 1000 | – | Cc1nc(CCCNC(=O)c2ccc(N3CCN(c4ccccc4C)CC3)c(NC(=O)c3coc(C4CC4)n3)c2)no1 [Compound 500] |
| 100 to 1000 | – | Cc1ccccc1N1CCN(c2ccc(C(=O)NCC(O)CN3CCCC3)cc2NC(=O)c2ccco2)CC1 (stereo not shown) [Compound 501] |
| 100 to 1000 | – | Cc1ccccc1N1CCN(c2ccc(C(=O)NCCN(C)C3CCCC3)cc2NC(=O)c2ccco2)CC1 [Compound 502] |
| 100 to 1000 | – | Cc1ccccc1N1CCN(c2ccc(C(=O)NCCCN3CCCC3C(N)=O)cc2NC(=O)c2ccco2)CC1 (stereo not shown) [Compound 503] |
| 100 to 1000 | – | Cc1ccccc1N1CCN(c2ccc(C(=O)NCCN(C)C3CCS(=O)(=O)C3)cc2NC(=O)c2ccco2)CC1 (stereo not shown) [Compound 504] |
| 1000 to 10000 | – | O=C(NCCCN1CCCC1=O)c1ccc(N2CCN(c3nccs3)CC2)c(NC(=O)c2coc(C3CC3)n2)c1 [Compound 505] |
| 100 to 1000 | – | COc1cccc(N2CCN(c3ccc(C(=O)NCCCN4CCCC4=O)cc3NC(=O)c3coc(C4CC4)n3)CC2)n1 [Compound 507] |
| 100 to 1000 | – | CCC(C)NC(=O)NCCCNC(=O)c1ccc(N2CCN(c3ccccc3C)CC2)c(NC(=O)c2ccco2)c1 (stereo not shown) [Compound 511] |
| < 100 | – | C=CCNC(=O)NCCCNC(=O)c1ccc(N2CCN(c3ccccc3C)CC2)c(NC(=O)c2ccco2)c1 [Compound 512] |
| 1000 to 10000 | – | Cn1ccnc1N1CCN(c2ccc(C(=O)NCCCN3CCOC3=O)cc2NC(=O)c2coc(C3CC3)n2)CC1 [Compound 513] |
| – | 48 | Cc1ccc(C(=O)Nc2cc(C(=O)NCCCN3CCOC3=O)ccc2N2CCN(c3nccn3C)CC2)o1 [Compound 514] |
| < 100 | – | Cc1ccccc1N1CCN(c2ccc(C(=O)NCCCC(=O)NCCO)cc2NC(=O)c2coc(C3CC3)n2)CC1 [Compound 515] |
| 100 to 1000 | – | CCc1ccccc1N1CCN(c2ccc(C(=O)NCCCN3CCCC3=O)cc2NC(=O)c2coc(C3CC3)n2)CC1 [Compound 516] |
| 100 to 1000 | – | CCc1ccccc1N1CCN(c2ccc(C(=O)NCCCN3CCCC3=O)cc2NC(=O)c2ccc(C)o2)CC1 [Compound 517] |
| 100 to 1000 | – | Cc1ccc(C)c(N2CCN(c3ccc(C(=O)NCCCN4CCCC4=O)cc3NC(=O)c3ccc(C)o3)CC2)c1 [Compound 519] |
| 100 to 1000 | – | Cc1ccc(C(=O)Nc2cc(C(=O)NCCCN3CCCC3=O)ccc2N2CCN(c3cccc(C)c3C)CC2)o1 [Compound 521] |
| 1000 to 10000 | – | Cc1ccc(C(=O)Nc2cc(C(=O)NCCCN3CCCC3=O)ccc2N2CCN(c3ccccc3C#N)CC2)o1 [Compound 522] |
